Assay results from patent US20070129281A1, “Pharmaceutical compounds” (priority 2003, published 2007).
“Also recorded” adds a separate entry of the source.

Biological target: T1, PTP1B catalytic domain (residues 1-321) (Homo sapiens, UniProt P18031)
T1 construct: crystallisation of the catalytic domain of PTP1B (residues 1-321) were based on literature conditions; made in house; host or cells: E. coli BL21(DE3), vector pET19b
T1 sequence (P18031 1-321): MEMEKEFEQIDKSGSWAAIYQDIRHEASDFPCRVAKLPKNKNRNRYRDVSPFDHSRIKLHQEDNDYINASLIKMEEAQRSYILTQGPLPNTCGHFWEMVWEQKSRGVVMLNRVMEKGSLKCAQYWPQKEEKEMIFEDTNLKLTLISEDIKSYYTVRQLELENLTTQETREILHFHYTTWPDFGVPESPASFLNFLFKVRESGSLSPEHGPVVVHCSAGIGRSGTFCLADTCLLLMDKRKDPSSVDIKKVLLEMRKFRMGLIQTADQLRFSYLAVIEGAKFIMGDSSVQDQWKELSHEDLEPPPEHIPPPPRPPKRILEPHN
Assay: Crystal soaking of PTP1B crystals with X-ray structure determination (oxidation state of Cys215)
Settings: for State of the catalytic Cys215 / active site of PTP1B in the crystal after soaking (X-ray data): crystals soaked about 24 hours in mother liquor without DTT containing 100 mM compound
Description: For overnight soaking experiments crystals were transferred into a standard mother liquor containing 16% PEG 4000, 0.1 M HEPES (pH 7.5), 0.2 M magnesium acetate, 10 mM DTT and the compound of interest (See Table 3 below).
All data were collected at 100 K. Data sets of sulfenic- sulfinic- and sulfonic acid PTP1B derivatives were automatically collected on a Jupiter140 CCD detector mounted on a RU3HR rotating anode generator equipped with an ACTOR sample-changing robot (RigakuMSC, The Woodlands Tex., USA). They were processed and scaled using D*TREK^21 and converted to structure factors using programs from the CCP4 suite^22.
Oxidation of Cys215 to the sulfenyl-amide derivative was carried out by soaking crystals for approximately 24 hours in mother liquor without DTT, but containing 100 mM 2-phenyl-isoxazolidine-3,5-dione. Data were collected at station 14.1 (SRS, Daresbury) and processed and scaled using MOSFLM/SCALA^22.
Reversibility of the sulfenyl-amide derivative was checked by first soaking two crystals in 100 mM 2-phenyl-isoxazolidine-3,5-dione for 24 hours.
All results were evaluated using the graphics programs QUANTA (Accelrys, San Diego Calif., USA) and Astexviewer™^23. Initial refinement was always carried out using the CCP4-based Astex automatic refinement scripts, followed by rounds of positional and B-factor refinement with REFMAC5^22 alternated with manual rebuilding steps using QUANTA.

## O=C1CC(=O)N(c2ccccc2)O1 [2-phenyl-isoxazolidine-3,5-dione]
  State of the catalytic Cys215 / active site of PTP1B in the crystal after soaking (X-ray data): Sulfenyl-amide formation was confirmed
Listed as 2-Phenyl-isoxazolidine-3,5-dione
  State of the catalytic Cys215 / active site of PTP1B in the crystal after soaking (X-ray data): confirmed the formation of the sulfenyl-amide bond

## N[C@@H](CCC(=O)N[C@@H](CS)C(=O)NCC(=O)O)C(=O)O [reduced glutathione, glutathione]
Back soaking 24 hours in mother liquor containing 20 mM reduced glutathione, after a 100 mM 2-phenyl-isoxazolidine-3,5-dione soak
  Active site conformation of sulfenyl-amide PTP1B crystal after back soaking (reversibility, X-ray data): entire active site back in its native conformation; also recorded: confirmed the active site in its native conformation
